# Assay results published in PubChem BioAssay AID1963983 (Molecular Pharmacology Branch, DTP, NCI, 2024).
# System: 186277-243-T-J2-PDC multi-cell spheroid viability
# Test: Anticancer human tumor 186277-243-T-J2-PDC patient-derived colon adenocarcinoma cell line growth inhibition [PI3K]
# Settings: for IC50: curve of first compound; for viability, T/C: stronger effect = lower value
# Description: Combinatorial screen of targeted agents with the PI3K inhibitors inavolisib, alpelisib, duvelisib, and copanlisib in multi-cell type tumor spheroids
# A high-throughput screen of multi-cell type tumor spheroids was designed to identify active combinations of targeted small molecules and PI3K pathway inhibitors. Complex spheroids include a stromal component modeled by human endothelial cells (HUVEC) and fibroblasts modeled by human mesenchymal stem cells (MSCs). The concentration ranges selected for each drug and investigational agent were based upon clinically achievable concentrations if the clinical Cmax of the agent was known.
# Compounds. The drugs and investigational agents: inavolisib (NSC800729), alpelisib (NSC765974), duvelisib (NSC772469), copanlisib (NSC816437), ipatasertib (NSC767898), afuresertib (NSC778305), talazoparib (NSC767125), sapanisertib (NSC764658), selumetinib (NSC741078), tovorafenib (DAY101, NSC766906), vemurafenib (NSC761431), ravoxertinib (NSC781343), sotorasib (NSC818433), MRTX1133 (NSC 836407), abemaciclib (NSC 768073), palbociclib (NSC758247), venetoclax (NSC 766270), SY5609 (NSC837396), enzalutamide (NSC755605), and darolutamide (NSC825331), were obtained from the National Cancer Institute (NCI) Developmental Therapeutics Program Chemical Repository. The FDA-approved anticancer drug set is available from the NCI Developmental Therapeutics Program. […] The stock solutions were prepared in dimethyl sulfoxide (DMSO, Sigma-Aldrich, St. Louis, MO, cat. D2650) at 800-fold the tested concentration and stored at -70 degrees C prior to their use. All drugs and investigational agents were tested over a range starting from a high concentration at or near the clinical Cmax and decreasing in half-log increments. If the clinical Cmax for an agent had not been determined, the highest concentration tested was 10 microM.
# Cell Culture. All cells were maintained in an incubator at 37 degrees C and 5% CO2 with 95% humidity. The PDC lines were cultured according to standard operating procedures established by the NCI PDMR (https://pdmr.cancer.gov/sops/default.htm). All PDCs were thawed and cultured in Matrigel-coated flasks prepared with a working solution of 1X Ham's F-12 nutrient mix, without supplementation (Invitrogen, Waltham, MA, cat. 11765054), 100 U/mL penicillin-streptomycin (Invitrogen, cat. 15140122), and 2.5% Matrigel (Corning Inc., Corning, NY, cat. 354248) for the first three passages. The 354836-022-R-J1-PDC, 475296-252-R-J1-PDC, and 997726-040-R-J2-PDC lines were cultured in 6A media, which includes advanced DMEM/F-12 (Thermo Fisher Scientific, cat. 12634028), 10 mM HEPES (Thermo Fisher Scientific, cat. 15630080), 1X GlutaMAX supplement (Thermo Fisher Scientific, cat. 35050061), 0.1 mg/mL primocin (InvivoGen, San Diego, CA, cat. ant-pm-2), 10% defined fetal bovine serum, heat inactivated (HyClone Laboratories Inc., Logan, UT, cat. SH30070.03HI), 50% L-WRN conditioned media (ATCC, cat. CRL-3276), 1.25 mM N-Acetyl-L-cysteine (Sigma-Aldrich, cat. A9165), 10 mM nicotinamide (Sigma-Aldrich, cat. N0636), 1X B-27 supplement (Thermo Fisher Scientific, cat. 17504044), 1X N-2 supplement (Thermo Fisher Scientific, cat. 17502048), and 10 microM Y-27632 dihydrochloride (Tocris Bioscience, Bristol, United Kingdom, cat. 1254). The 624824-186-R-J2-PDC line was cultured in 6C/Colon 1B media, which includes all 6A media components plus 50 ng/mL human EGF recombinant protein (Thermo Fisher Scientific, cat. PHG0311). […]
# [1] = second compound 0.0316 µM, first compound 0.0316 µM
# [2] = second compound 0.0316 µM, first compound 0.1 µM
# [3] = second compound 0.1 µM, first compound 0.0316 µM
# [4] = second compound 0.1 µM, first compound 0.1 µM
# [5] = second compound 0.316 µM, first compound 0.0316 µM
# [6] = second compound 0.316 µM, first compound 0.1 µM
# [7] = second compound 1 µM, first compound 0.0316 µM
# [8] = second compound 1 µM, first compound 0.1 µM
# [9] = second compound 0.00316 µM, first compound 0.000316 µM
# [10] = second compound 0.00316 µM, first compound 0.001 µM
# [11] = second compound 0.00316 µM, first compound 0.00316 µM
# [12] = second compound 0.00316 µM, first compound 0.01 µM
# [13] = second compound 0.00316 µM, first compound 0.0316 µM
# [14] = second compound 0.00316 µM, first compound 0.1 µM
# [15] = second compound 0.01 µM, first compound 0.000316 µM
# [16] = second compound 0.01 µM, first compound 0.001 µM
# [17] = second compound 0.01 µM, first compound 0.00316 µM
# [18] = second compound 0.01 µM, first compound 0.01 µM
# [19] = second compound 0.01 µM, first compound 0.0316 µM
# [20] = second compound 0.01 µM, first compound 0.1 µM
# [21] = second compound 0.0316 µM, first compound 0.000316 µM
# [22] = second compound 0.0316 µM, first compound 0.001 µM
# [23] = second compound 0.0316 µM, first compound 0.00316 µM
# [24] = second compound 0.0316 µM, first compound 0.01 µM
# [25] = second compound 0.1 µM, first compound 0.000316 µM
# [26] = second compound 0.1 µM, first compound 0.001 µM
# [27] = second compound 0.1 µM, first compound 0.00316 µM
# [28] = second compound 0.1 µM, first compound 0.01 µM
# [29] = second compound 0.316 µM, first compound 0.000316 µM
# [30] = second compound 0.316 µM, first compound 0.001 µM
# [31] = second compound 0.316 µM, first compound 0.00316 µM
# [32] = second compound 0.316 µM, first compound 0.01 µM
# [33] = second compound 1 µM, first compound 0.000316 µM
# [34] = second compound 1 µM, first compound 0.001 µM
# [35] = second compound 1 µM, first compound 0.00316 µM
# [36] = second compound 1 µM, first compound 0.01 µM
# 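Further: spheroids exposed to compounds for seven days before viability reading.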
# 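Wherever viability, T/C is given: 100% = DMSO vehicle control viability.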
compound,measurement,setting,value
CC(Cn1ccc(-c2ccc(C#N)c(Cl)c2)n1)NC(=O)c1cc(C(C)O)[nH]n1 (stereo unspecified) + CC(Nc1ncnc2nc[nH]c12)c1cc2cccc(Cl)c2c(=O)n1-c1ccccc1,IC50,second compound 0.0316 µM,> 10000 nM
same,IC50,second compound 0.1 µM,> 10000 nM
same,IC50,second compound 0.316 µM,> 10000 nM
same,IC50,second compound 1 µM,> 10000 nM
same,IC50,second compound 3.16 µM,> 10000 nM
same,IC50,second compound 10 µM,> 10000 nM
same,"viability, T/C",[1],91%
same,"viability, T/C",[2],109%
same,"viability, T/C","second compound 0.0316 µM, first compound 0.316 µM",101%
same,"viability, T/C","second compound 0.0316 µM, first compound 1 µM",90.2%
same,"viability, T/C","second compound 0.0316 µM, first compound 3.16 µM",93.7%
same,"viability, T/C","second compound 0.0316 µM, first compound 10 µM",97.9%
same,"viability, T/C",[3],98.2%
same,"viability, T/C",[4],94.8%
same,"viability, T/C","second compound 0.1 µM, first compound 0.316 µM",94.9%
same,"viability, T/C","second compound 0.1 µM, first compound 1 µM",103%
same,"viability, T/C","second compound 0.1 µM, first compound 3.16 µM",101%
same,"viability, T/C","second compound 0.1 µM, first compound 10 µM",88.3%
same,"viability, T/C",[5],92.3%
same,"viability, T/C",[6],104%
same,"viability, T/C","second compound 0.316 µM, first compound 0.316 µM",95.7%
same,"viability, T/C","second compound 0.316 µM, first compound 1 µM",93.1%
same,"viability, T/C","second compound 0.316 µM, first compound 3.16 µM",98.5%
same,"viability, T/C","second compound 0.316 µM, first compound 10 µM",102%
same,"viability, T/C",[7],92.7%
same,"viability, T/C",[8],108%
same,"viability, T/C","second compound 1 µM, first compound 0.316 µM",114%
same,"viability, T/C","second compound 1 µM, first compound 1 µM",92.1%
same,"viability, T/C","second compound 1 µM, first compound 3.16 µM",94.4%
same,"viability, T/C","second compound 1 µM, first compound 10 µM",84.1%
same,"viability, T/C","second compound 3.16 µM, first compound 0.0316 µM",89.6%
same,"viability, T/C","second compound 3.16 µM, first compound 0.1 µM",102%
same,"viability, T/C","second compound 3.16 µM, first compound 0.316 µM",116%
same,"viability, T/C","second compound 3.16 µM, first compound 1 µM",97.3%
same,"viability, T/C","second compound 3.16 µM, first compound 3.16 µM",106%
same,"viability, T/C","second compound 3.16 µM, first compound 10 µM",94.5%
same,"viability, T/C","second compound 10 µM, first compound 0.0316 µM",98%
same,"viability, T/C","second compound 10 µM, first compound 0.1 µM",83.4%
same,"viability, T/C","second compound 10 µM, first compound 0.316 µM",84.3%
same,"viability, T/C","second compound 10 µM, first compound 1 µM",98.9%
same,"viability, T/C","second compound 10 µM, first compound 3.16 µM",90.1%
same,"viability, T/C","second compound 10 µM, first compound 10 µM",78.8%
CC(=O)c1c(C)c2cnc(Nc3ccc(N4CCNCC4)cn3)nc2n(C2CCCC2)c1=O + CC(Nc1ccc2c(c1)OCCn1cc(N3C(=O)OCC3C(F)F)nc1-2)C(N)=O,IC50,second compound 0.00316 µM,> 100 nM
same,IC50,second compound 0.01 µM,> 100 nM
same,IC50,second compound 0.0316 µM,> 100 nM
same,IC50,second compound 0.1 µM,> 100 nM
same,IC50,second compound 0.316 µM,96.4 nM
same,IC50,second compound 1 µM,< 0.316 nM
same,"viability, T/C",[9],114%
same,"viability, T/C",[10],89.2%
same,"viability, T/C",[11],82.3%
same,"viability, T/C",[12],98.5%
same,"viability, T/C",[13],118%
same,"viability, T/C",[14],137%
same,"viability, T/C",[15],94%
same,"viability, T/C",[16],94.8%
same,"viability, T/C",[17],89.8%
same,"viability, T/C",[18],101%
same,"viability, T/C",[19],119%
same,"viability, T/C",[20],132%
same,"viability, T/C",[21],119%
same,"viability, T/C",[22],116%
same,"viability, T/C",[23],91.7%
same,"viability, T/C",[24],96.3%
same,"viability, T/C",[1],134%
same,"viability, T/C",[2],122%
same,"viability, T/C",[25],104%
same,"viability, T/C",[26],89.3%
same,"viability, T/C",[27],102%
same,"viability, T/C",[28],98.6%
same,"viability, T/C",[3],101%
same,"viability, T/C",[4],89.4%
same,"viability, T/C",[29],85.3%
same,"viability, T/C",[30],73.6%
same,"viability, T/C",[31],73.2%
same,"viability, T/C",[32],76.1%
same,"viability, T/C",[5],63.5%
same,"viability, T/C",[6],49.3%
same,"viability, T/C",[33],49.7%
same,"viability, T/C",[34],43.5%
same,"viability, T/C",[35],47.5%
same,"viability, T/C",[36],41.2%
same,"viability, T/C",[7],35.7%
same,"viability, T/C",[8],29.6%
CC(C)n1nc(-c2ccc3oc(N)nc3c2)c2c(N)ncnc21 + CC(Nc1ccc2c(c1)OCCn1cc(N3C(=O)OCC3C(F)F)nc1-2)C(N)=O,IC50,second compound 0.00316 µM,52.9 nM
same,IC50,second compound 0.01 µM,55.2 nM
same,IC50,second compound 0.0316 µM,47.5 nM
same,IC50,second compound 0.1 µM,30.4 nM
same,IC50,second compound 0.316 µM,8.51 nM
same,IC50,second compound 1 µM,< 0.316 nM
same,"viability, T/C",[9],90%
same,"viability, T/C",[10],101%
same,"viability, T/C",[11],104%
same,"viability, T/C",[12],93.7%
same,"viability, T/C",[13],75.1%
same,"viability, T/C",[14],19.1%
same,"viability, T/C",[15],116%
same,"viability, T/C",[16],87.5%
same,"viability, T/C",[17],113%
same,"viability, T/C",[18],93.1%
same,"viability, T/C",[19],73.5%
same,"viability, T/C",[20],25.3%
same,"viability, T/C",[21],107%
same,"viability, T/C",[22],116%
same,"viability, T/C",[23],97.9%
same,"viability, T/C",[24],89.9%
same,"viability, T/C",[1],69.7%
same,"viability, T/C",[2],17.5%
same,"viability, T/C",[25],95.8%
same,"viability, T/C",[26],94.2%
same,"viability, T/C",[27],92.5%
same,"viability, T/C",[28],82.4%
same,"viability, T/C",[3],48.8%
same,"viability, T/C",[4],8.12%
same,"viability, T/C",[29],81.7%
same,"viability, T/C",[30],80.3%
same,"viability, T/C",[31],63.5%
same,"viability, T/C",[32],49.7%
same,"viability, T/C",[5],22.6%
same,"viability, T/C",[6],6.29%
same,"viability, T/C",[33],46.9%
same,"viability, T/C",[34],39.3%
same,"viability, T/C",[35],37.6%
same,"viability, T/C",[36],24.3%
same,"viability, T/C",[7],8.53%
same,"viability, T/C",[8],3.88%
